The IC50 is the concentration needed to halve the response being measured.

The structures appear in SMILES notation.

These results are taken from patent US9676766B2, “Triazolopyridines” (BAYER INTELLECTUAL PROPERTY GMBH, priority 2009, dated 2017).

In the test the target is T1, human kinase Mps-1 (Homo sapiens, UniProt P33981).
T1 construct: N-terminally GST-tagged human full length recombinant Mps-1 kinase; purchased Invitrogen, Karslruhe, Germany PV4071
T1 sequence (P33981 1-857): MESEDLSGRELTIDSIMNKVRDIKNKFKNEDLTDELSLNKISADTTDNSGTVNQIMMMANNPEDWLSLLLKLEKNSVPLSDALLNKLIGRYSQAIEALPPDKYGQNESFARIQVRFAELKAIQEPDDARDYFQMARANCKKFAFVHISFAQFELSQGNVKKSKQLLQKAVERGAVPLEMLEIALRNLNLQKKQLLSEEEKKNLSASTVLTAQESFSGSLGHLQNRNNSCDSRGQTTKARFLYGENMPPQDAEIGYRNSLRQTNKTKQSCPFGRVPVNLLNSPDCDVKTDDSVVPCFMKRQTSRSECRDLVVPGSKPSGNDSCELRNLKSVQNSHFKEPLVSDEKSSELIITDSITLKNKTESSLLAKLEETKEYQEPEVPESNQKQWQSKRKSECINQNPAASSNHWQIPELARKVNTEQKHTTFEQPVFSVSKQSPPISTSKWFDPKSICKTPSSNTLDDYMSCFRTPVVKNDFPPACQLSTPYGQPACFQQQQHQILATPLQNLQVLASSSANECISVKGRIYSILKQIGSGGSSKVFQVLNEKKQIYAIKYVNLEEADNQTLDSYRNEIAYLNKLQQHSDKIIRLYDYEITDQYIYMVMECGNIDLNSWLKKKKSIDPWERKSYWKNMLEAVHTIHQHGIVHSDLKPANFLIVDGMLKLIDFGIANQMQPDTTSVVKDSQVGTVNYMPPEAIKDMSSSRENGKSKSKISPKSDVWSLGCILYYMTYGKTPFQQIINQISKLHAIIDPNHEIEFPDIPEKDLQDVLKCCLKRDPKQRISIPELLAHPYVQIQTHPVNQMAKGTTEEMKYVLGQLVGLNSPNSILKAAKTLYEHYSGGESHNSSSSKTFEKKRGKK
Description: Mps-1 Kinase Assay (TR-FRET). As to conditions: N-terminally GST-tagged human full length recombinant Mps-1; 10 μM ATP; 1 μM biotinylated peptide substrate; 60 min at 22° C.; read-out: MPS1 Inhibition, IC50 in M. The format is biochemical.
With `N#Cc1ccccc1Nc1nc2ccc(-c3cccc(C(=O)NC4CCCC4)c3)cn2n1` [Example 9.2, 3-{2-[(2-cyanophenyl)amino][1,2,4]triazolo[1,5-a]pyridin-6-yl}-N-cyclopentylbenzamide], the concentration for half-maximal inhibition (IC50) was 2.9 nM.
The value for `COc1ccccc1Nc1nc2ccc(-c3cccc(C(=O)NC4CC4)c3)cn2n1` [Example 10.1, N-cyclopropyl-3-{2-[(2-methoxyphenyl)amino][1,2,4]triazolo[1,5-a]pyridin-6-yl}benzamide] was 6.5 nM; that for `COc1ccccc1Nc1nc2ccc(-c3ccc(NC(=O)C4CC4)cc3)cn2n1` [Example 4.3, N-(4-{2-[(2-methoxyphenyl)amino][1,2,4]triazolo[1,5-a]pyridin-6-yl}phenyl)cyclopropanecarboxamide] was 39 nM.
`COc1ccccc1Nc1nc2ccc(-c3cccc(NC(=O)C4CC4)c3)cn2n1` [Example 8.2, N-(3-{2-[(2-methoxyphenyl)amino][1,2,4]triazolo[1,5-a]pyridin-6-yl}phenyl)cyclopropanecarboxamide]: the IC50 was determined as 59 nM.
Regarding `COc1ccccc1Nc1nc2ccc(-c3cccc(NC(=O)Nc4ccncc4)c3)cn2n1` [Example 8.14, 1-(3-{2-[(2-methoxyphenyl)amino][1,2,4]triazolo[1,5-a]pyridin-6-yl}phenyl)-3-pyridin-4-ylurea], the IC50 worked out at 660 nM.
Take `COc1ccccc1Nc1nc2ccc(-c3cccc(NC(=O)NCCN4CCOCC4)c3)cn2n1` [Example 8.13, 1-(3-{2-[(2-methoxyphenyl)amino][1,2,4]triazolo[1,5-a]pyridin-6-yl}phenyl)-3-[2-(morpholin-4-yl)ethyl]urea]: the IC50 was determined as 470 nM.
On to `CO[C@H](C(=O)Nc1ccc(-c2ccc3nc(Nc4ccccc4C#N)nn3c2)cc1)c1ccccc1` (stereo in doubt) [Example 3.2, N-(4-{2-[(2-cyanophenyl)amino][1,2,4]triazolo[1,5-a]pyridin-6-yl}phenyl)-2-methoxy-2-phenylacetamide], for which the IC50 came to 3.4 nM.
As to `O=C(CC1CC1)Nc1ccc(-c2ccc3nc(Nc4ccccc4C(F)(F)F)nn3c2)cc1` [Example 5.3, 2-cyclopropyl-N-[4-(2-{[2-(trifluoromethyl)phenyl]amino}[1,2,4]triazolo[1,5-a]pyridin-6-yl)phenyl]acetamide], the IC50 is 81 nM.
For `N#Cc1ccccc1Nc1nc2ccc(-c3cccc(C(=O)Nc4ccccc4)c3)cn2n1` [Example 2.1, 3-{2-[(2-cyanophenyl)amino][1,2,4]triazolo[1,5-a]pyridin-6-yl}-N-phenylbenzamide], the IC50 worked out at 65 nM.
Take `CN1CCN(C(=O)c2cccc(-c3ccc4nc(Nc5ccccc5C#N)nn4c3)c2)CC1` [Example 9.1, 2-[(6-{3-[(4-methylpiperazin-1-yl)carbonyl]phenyl}[1,2,4]triazolo[1,5-a]pyridin-2-yl)amino]benzonitrile]: the IC50 was 59 nM.
As to `CN1CCC(NC(=O)c2cccc(-c3ccc4nc(Nc5ccccc5C#N)nn4c3)c2)CC1` [Example 9.3, 3-{2-[(2-cyanophenyl)amino][1,2,4]triazolo[1,5-a]pyridin-6-yl}-N-(1-methylpiperidin-4-yl)benzamide], the IC50 was 74 nM.
As for `NC(C(=O)Nc1ccc(-c2ccc3nc(Nc4ccccc4C(F)(F)F)nn3c2)cc1)c1ccccc1` (racemic) [Example 5.7, rac-2-amino-2-phenyl-N-[4-(2-{[2-(trifluoromethyl)phenyl]amino}[1,2,4]triazolo[1,5-a]pyridin-6-yl)phenyl]acetamide], the IC50 was 14 nM.
In the case of `COc1ccccc1Nc1nc2ccc(-c3ccc(C(=O)NC4CC4)cc3)cn2n1` [Example 1.1, N-Cyclopropyl-4-[2-(2-methoxy-phenylamino)-[1,2,4]triazolo[1,5-a]pyridin-6-yl]-benzamide], the 50% inhibitory concentration (IC50) was 370 nM.
`O=C(Cc1ccccc1)Nc1ccc(-c2ccc3nc(Nc4ccccc4C(F)(F)F)nn3c2)cc1` [Example 5.1, 2-phenyl-N-[4-(2-{[2-(trifluoromethyl)phenyl]amino}[1,2,4]triazolo[1,5-a]pyridin-6-yl)phenyl]acetamide]: the 50% inhibitory concentration (IC50) was 7.1 nM.
Consider `O=C(CN1CCCCC1)Nc1ccc(-c2ccc3nc(Nc4ccccc4C(F)(F)F)nn3c2)cc1` [Example 5.6, 2-(piperidin-1-yl)-N-[4-(2-{[2-(trifluoromethyl)phenyl]amino}[1,2,4]triazolo[1,5-a]pyridin-6-yl)phenyl]acetamide], for which the IC50 was found to be 880 nM.
`COc1ccccc1Nc1nc2ccc(-c3cccc(NC(=O)Nc4cccnc4)c3)cn2n1` [Example 8.12, 1-(3-{2-[(2-methoxyphenyl)amino][1,2,4]triazolo[1,5-a]pyridin-6-yl}phenyl)-3-pyridin-3-ylurea]: the concentration for half-maximal inhibition (IC50) was 270 nM.
As for `COc1ccccc1Nc1nc2ccc(-c3cccc(NS(=O)(=O)CC4CC4)c3)cn2n1` [Example 8.3, 1-Cyclopropyl-N-(3-{2-[(2-methoxyphenyl)amino][1,2,4]triazolo[1,5-a]pyridin-6-yl}phenyl)methanesulfonamide], the IC50 turned out to be 66 nM.
With `COC(C(=O)Nc1ccc(-c2ccc3nc(Nc4ccccc4C(F)(F)F)nn3c2)cc1)c1ccccc1` (racemic) [Example 5.9, Rac-2-methoxy-2-phenyl-N-[4-(2-{[2-(trifluoromethyl)phenyl]amino}[1,2,4]-triazolo[1,5-a]pyridin-6-yl)phenyl]acetamide], the IC50 is 110 nM.
`COc1ccccc1Nc1nc2ccc(-c3cccc(NC(=O)N4CCOCC4)c3)cn2n1` [Example 8.10, N-(3-{2-[(2-methoxyphenyl)amino][1,2,4]triazolo[1,5-a]pyridin-6-yl}phenyl)morpholine-4-carboxamide]: the IC50 was 100 nM.
On to `N#Cc1ccccc1Nc1nc2ccc(-c3ccc(NC(=O)Nc4ccccc4)cc3)cn2n1` [Example 3.7, 1-(4-{2-[(2-cyanophenyl)amino][1,2,4]triazolo[1,5-a]pyridin-6-yl}phenyl)-3-phenylurea], for which the half-inhibitory concentration (IC50) stood at 12 nM.
The value for `O=C(Nc1ccc(-c2ccc3nc(Nc4ccccc4C(F)(F)F)nn3c2)cc1)C1CC1` [Example 5.2, N-[4-(2-{[2-(trifluoromethyl)phenyl]amino}[1,2,4]triazolo[1,5-a]pyridin-6-yl)phenyl]cyclopropanecarboxamide] was 180 nM.
For `COc1ccccc1Nc1nc2ccc(-c3cccc(NC(=O)N4CCN(C)CC4)c3)cn2n1` [Example 8.8, N-(3-{2-[(2-methoxyphenyl)amino][1,2,4]triazolo[1,5-a]pyridin-6-yl}phenyl)-4-methylpiperazine-1-carboxamide], the IC50 turned out to be 620 nM.
For `COc1ccccc1Nc1nc2ccc(-c3cccc(NC(=O)N4CCC(N(C)C)CC4)c3)cn2n1` [Example 8.11, 4-(dimethylamino)-N-(3-{2-[(2-methoxyphenyl)amino][1,2,4]triazolo[1,5-a]pyridin-6-yl}phenyl)piperidine-1-carboxamide], the IC50 worked out at 640 nM.
For `COc1ccccc1Nc1nc2ccc(-c3cccc(NC(=O)Cc4ccccc4)c3)cn2n1` [Example 8.1, N-(3-{2-[(2-methoxyphenyl)amino][1,2,4]triazolo[1,5-a]pyridin-6-yl}phenyl)-2-phenylacetamide] the value was 290 nM; for `COc1ccccc1Nc1nc2ccc(-c3cccc(NC(=O)Nc4ccccc4)c3)cn2n1` [Example 8.5, 1-(3-{2-[(2-methoxyphenyl)amino][1,2,4]triazolo[1,5-a]pyridin-6-yl}phenyl)-3-phenylurea], 440 nM; for `CN1CCN(CC(=O)Nc2ccc(-c3ccc4nc(Nc5ccccc5C(F)(F)F)nn4c3)cc2)CC1` [Example 5.4, 2-(4-methylpiperazin-1-yl)-N-[4-(2-{[2-(trifluoromethyl)phenyl]amino}[1,2,4]triazolo[1,5-a]pyridin-6-yl)phenyl]acetamide], 2200 nM.
With `O=C(CN1CCOCC1)Nc1ccc(-c2ccc3nc(Nc4ccccc4C(F)(F)F)nn3c2)cc1` [Example 5.5, 2-(morpholin-4-yl)-N-[4-(2-{[2-(trifluoromethyl)phenyl]amino}[1,2,4]triazolo[1,5-a]pyridin-6-yl)phenyl]acetamide], the concentration for half-maximal inhibition (IC50) was determined as 3300 nM.
As to `N#Cc1ccccc1Nc1nc2ccc(-c3ccc(NC(=O)Cc4ccc(C(F)(F)F)cc4)cc3)cn2n1` [Example 3.1, N-(4-{2-[(2-cyanophenyl)amino][1,2,4]triazolo[1,5-a]pyridin-6-yl}phenyl)-2-[4-(trifluoromethyl)phenyl]acetamide], the IC50 came out at 8.2 nM.
Turning to `COc1ccccc1Nc1nc2ccc(-c3cccc(NS(=O)(=O)c4ccccc4)c3)cn2n1` [Example 8.6, N-(3-{2-[(2-methoxyphenyl)amino][1,2,4]triazolo[1,5-a]pyridin-6-yl}phenyl)benzenesulfonamide], the IC50 was 360 nM.
